Experiments:
[1] = system: MDA-MB-231 cells; test: Inhibition of proliferation of triple-negative breast cancer cells, CellTiter-Glo; type: cell-based; conditions: Homo sapiens, 120 h; MDA-MB-231, cultured for 5 days
Method: Specifically, the following test was performed in order to evaluate the inhibitory activity of the compound according to the present invention against the cell proliferation in triple-negative breast cancer cells (TNBCs).
Cells were seeded in 180 μL of a culture broth at a density of 2,000 to 3,000 cells/well in a white clear bottom 96-well plate (Corning) according to the growth ability of each cell, and then cultured for 24 hours under conditions of 5% CO2 and 37° C. Thereafter, the compound was prepared by diluting a 10 mM stock solution three-fold with 100% DMSO at a total of 12 concentrations so that a peak concentration of the compound was in a range of 10 mM to 0.05 μM, and the diluted compound was then diluted in each cell culture medium so that a final concentration of the compound was in a range of 100 μM to 0.5 nM. 20 μL of a diluted solution diluted with a medium was added to the cell solution in which cells were seeded in the 96-well plate on the previous day so that a final concentration of the diluted solution was in a range of 10 μM to 0.05 nM. Each of the cells was cultured for 5 days. To check cell viability, a mixture provided in a CellTiter-Glo® Luminescent Cell Viability Assay Kit (Promega) was added to each of the cultured cell media, and cultured for another 10 minutes under a condition of 37° C. Then, a degree of luminescence (fluorescence) was measured. A degree of inhibition of the cell growth according to the treatment concentration of each of the compounds was calculated based on the fluorescence of the solvent control cells which were not treated with the compound.

[2] = biological target: T1, TTK (Homo sapiens, UniProt P33981); test: TTK enzyme activity, ADP-Glo kinase assay; type: biochemical; set-up: purchased SignalChem T20-10G; conditions: purified human TTK, ATP 10 μM, 25° C., 2 hours
T1 sequence (P33981 1-857): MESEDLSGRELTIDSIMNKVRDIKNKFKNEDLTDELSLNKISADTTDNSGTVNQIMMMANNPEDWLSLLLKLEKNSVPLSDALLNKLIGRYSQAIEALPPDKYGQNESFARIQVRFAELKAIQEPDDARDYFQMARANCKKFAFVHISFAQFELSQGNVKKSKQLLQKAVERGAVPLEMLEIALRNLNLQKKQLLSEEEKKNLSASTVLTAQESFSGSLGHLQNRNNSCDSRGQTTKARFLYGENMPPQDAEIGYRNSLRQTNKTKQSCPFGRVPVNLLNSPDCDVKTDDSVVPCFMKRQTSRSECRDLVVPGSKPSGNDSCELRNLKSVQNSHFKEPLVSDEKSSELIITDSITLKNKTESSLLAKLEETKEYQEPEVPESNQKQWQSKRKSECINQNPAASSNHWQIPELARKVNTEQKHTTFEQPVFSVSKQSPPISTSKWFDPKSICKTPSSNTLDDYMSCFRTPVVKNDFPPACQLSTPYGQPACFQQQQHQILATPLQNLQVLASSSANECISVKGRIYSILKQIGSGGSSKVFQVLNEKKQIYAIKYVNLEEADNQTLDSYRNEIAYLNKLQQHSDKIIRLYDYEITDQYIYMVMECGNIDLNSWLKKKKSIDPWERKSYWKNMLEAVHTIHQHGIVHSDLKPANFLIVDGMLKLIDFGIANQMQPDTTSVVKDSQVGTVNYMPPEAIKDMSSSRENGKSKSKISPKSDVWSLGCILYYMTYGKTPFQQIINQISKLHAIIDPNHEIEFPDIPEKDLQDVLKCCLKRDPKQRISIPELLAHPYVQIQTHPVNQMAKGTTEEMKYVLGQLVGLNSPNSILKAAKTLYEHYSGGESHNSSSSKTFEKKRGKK
Method: To evaluate an inhibitory activity of the compound according to the present invention against TTK (MPS1), an experiment was performed as follows.
Each of the Example compounds was reacted with a purified human TTK (SignalChem #T20-10G) enzyme to evaluate an ability to inhibit an enzyme using a method as described below. A composition of 40 mM Tris-HCl (pH 7.4), 20 mM MgCl2, 0.5 mg/mL BSA, and 50 μM DTT was used as a reaction buffer, and all reactions of test substances were performed in the reaction buffer. […] In the test, purified ATP (10 μM) and an enzyme substrate (0.2 μg) were reacted with a human TTK (25 ng) enzyme at 25° C. for 2 hours, and the enzyme activity was determined using an in vitro ADP-Glo™ kinase assay (Promega). […] The degree of inhibition of the enzyme activity according to the treatment concentration of each of the compounds was calculated based on the fluorescence of the enzyme activity of the solvent control which was not treated with the compound.

GI50 [1] | IC50 [2] | Structure (SMILES)
< 100 nM | – | CCOc1cc(-c2ccnn2C)ccc1Nc1nc(NC2CCCCC2)c2c(C#N)c[nH]c2n1 [Example 36, 4-(cyclohexylamino)-2-((2-ethoxy-4-(1-methyl-1H-pyrazol-5-yl)phenyl)amino)-7H-pyrrolo[2,3-d] pyrimidine-5-carbonitrile]
< 100 nM | < 50 nM | COc1cc(-c2cncn2C)ccc1Nc1nc(NC2CCCC2)c2c(C#N)c[nH]c2n1 [Example 30, 4-(cyclopentylamino)-2-((2-methoxy-4-(1-methyl-1H-imidazol-5-yl)phenyl)amino)-7H-pyrrolo[2,3-d] pyrimidine-5-carbonitrile]
> 1000 nM | – | COc1cc(N2CCCC2=O)ccc1Nc1nc(NC2CCOCC2)c2c(C#N)c[nH]c2n1 [Example 74, 2-((2-methoxy-4-(2-oxopyrrolidin-1-yl)phenyl)amino)-4-((tetrahydro-2H-pyran-4-yl)amino)-7H-pyrrolo[2,3-d] pyrimidine-5-carbonitrile]
< 100 nM | < 50 nM | COc1cc(N2CCCC2=O)ccc1Nc1nc(O[C@H]2CC[C@@](C)(O)CC2)c2c(C#N)c[nH]c2n1 [Example 32, 4-(((1s,4s)-4-hydroxy-4-methylcyclohexyl)oxy)-2-((2-methoxy-4-(2-oxopyrrolidin-1-yl)phenyl)amino)-7H-pyrrolo[2,3-d] pyrimidine-5-carbonitrile 2,2,2-trifluoroacetate]
100 to 1000 nM | < 50 nM | CCOc1cc(-c2nncn2C)ccc1Nc1nc(NCCS(C)(=O)=O)c2c(C#N)c[nH]c2n1 [Example 14, 2-((2-ethoxy-4-(4-methyl-4H-1,2,4-triazol-3-yl)phenyl)amino)-4-((2-(methylsulfonyl)ethyl)amino)-7H-pyrrolo[2,3-d] pyrimidine-5-carbonitrile]
100 to 1000 nM | – | COc1cc(-c2ccnn2C)ccc1Nc1nc(NC2CCCCC2)c2cc[nH]c2n1 [Example 4, N^4-cyclohexyl-N^2-(2-methoxy-4-(1-methyl-1H-pyrazol-5-yl)phenyl)-7H-pyrrolo[2,3-d] pyrimidine-2,4-diamine]
< 100 nM | < 50 nM | CC[C@H](C)Nc1nc(Nc2ccc(-c3ccnn3C)cc2OC)nc2[nH]cc(C#N)c12 [Example 1, (S)-4-(sec-butylamino)-2-((2-methoxy-4-(1-methyl-1H-pyrazol-5-yl)phenyl)amino)-7H-pyrrolo[2,3-d] pyrimidine-5-carbonitrile 2,2,2-trifluoroacetate]
< 100 nM | < 50 nM | COc1cc(-c2nnc3n2CCC3)ccc1Nc1nc(NC2CCCCC2)c2c(C#N)c[nH]c2n1 [Example 31, 4-(cyclohexylamino)-2-((4-(6,7-dihydro-5H-pyrrolo[2,1-c] [1,2,4]triazol-3-yl)-2-methoxyphenyl)amino)-7H-pyrrolo[2,3-d] pyrimidine-5-carbonitrile]
> 1000 nM | < 50 nM | CNc1nc(Nc2ccc(-c3ccnn3C)cc2OC)nc2[nH]cc(C#N)c12 [Example 9, 2-((2-methoxy-4-(1-methyl-1H-pyrazol-5-yl)phenyl)amino)-4-(methylamino)-1H-pyrrolo[2,3-d] pyrimidine-5-carbonitrile]
< 100 nM | 50 to 200 nM | COc1cc(-c2cnn(C3CCOCC3)c2)ccc1Nc1nc(NC2CCCCC2)c2c(C#N)c[nH]c2n1 [Example 19, 4-(cyclohexylamino)-2-((2-methoxy-4-(1-(tetrahydro-2H-pyran-4-yl)-1H-pyrazol-4-yl)phenyl)amino)-7H-pyrrolo[2,3-d] pyrimidine-5-carbonitrile]
100 to 1000 nM | – | COc1cc(N2CCCC2=O)ccc1Nc1nc(NCC(C)(C)C)c2c(C#N)c[nH]c2n1 [Example 77, 2-((2-methoxy-4-(2-oxopyrrolidin-1-yl)phenyl)amino)-4-(neopentylamino)-7H-pyrrolo[2,3-d] pyrimidine-5-carbonitrile]
– | < 50 nM | COc1cc(-c2ccnn2C)ccc1Nc1nc(NC2CCOCC2)c2c(C#N)c[nH]c2n1 [Example 15, 2-((2-methoxy-4-(1-methyl-1H-pyrazol-5-yl)phenyl)amino)-4-((tetrahydro-2H-pyran-4-yl)amino)-7H-pyrrolo[2,3-d] pyrimidine-5-carbonitrile]
– | < 50 nM | COCCNc1nc(Nc2ccc(-c3ccnn3C)cc2OC)nc2[nH]cc(C#N)c12 [Example 13]
< 100 nM | – | COc1cc(N2CCOCC2=O)ccc1Nc1nc(NC2CCCCC2)c2c(C#N)c[nH]c2n1 [Example 81, 4-(cyclohexylamino)-2-((2-methoxy-4-(3-oxomorpholino)phenyl)amino)-7H-pyrrolo[2,3-d] pyrimidine-5-carbonitrile]
< 100 nM | – | N#Cc1c[nH]c2nc(Nc3ccc(N4CCCC4=O)cc3)nc(NC3CCCCC3)c12 [Example 80, 4-(cyclohexylamino)-2-((4-(2-oxopyrrolidin-1-yl)phenyl)amino)-7H-pyrrolo[2,3-d] pyrimidine-5-carbonitrile]
< 100 nM | – | COc1cc(-n2cc(C)nc2C)ccc1Nc1nc(NC2CCCCC2)c2c(C#N)c[nH]c2n1 [Example 34, 4-(cyclohexylamino)-2-((4-(2,4-dimethyl-1H-imidazol-1-yl)-2-methoxyphenyl)amino)-7H-pyrrolo[2,3-d] pyrimidine-5-carbonitrile]
< 100 nM | – | COc1cc(-c2ccnn2C)ccc1Nc1nc(OC2CCCCC2)c2c(C#N)c[nH]c2n1 [Example 45, 4-(cyclohexyloxy)-2-((2-methoxy-4-(1-methyl-1H-pyrazol-5-yl)phenyl)amino)-7H-pyrrolo[2,3-d] pyrimidine-5-carbonitrile]
100 to 1000 nM | – | CCOc1cc(N2CCCC2=O)ccc1Nc1nc(NC2CCCCC2)c2c(C#N)c[nH]c2n1 [Example 78, 4-(cyclohexylamino)-2-((2-ethoxy-4-(2-oxopyrrolidin-1-yl)phenyl)amino)-7H-pyrrolo[2,3-d] pyrimidine-5-carbonitrile]
< 100 nM | – | Cn1nccc1-c1ccc(Nc2nc(NC3CCCCC3)c3c(C#N)c[nH]c3n2)cc1 [Example 37, 4-(cyclohexylamino)-2-((4-(1-methyl-1H-pyrazol-5-yl)phenyl)amino)-7H-pyrrolo[2,3-d] pyrimidine-5-carbonitrile]
> 1000 nM | – | COc1cc(-c2ccnn2C)ccc1Nc1nc(NC2CCCCC2)c2c(C(F)(F)F)c[nH]c2n1 [Example 6, N^4-cyclohexyl-N^2-(2-methoxy-4-(1-methyl-1H-pyrazol-5-yl)phenyl)-5-(trifluoromethy1)-7H-pyrrolo[2,3-d] pyrimidine-2,4-diamine]
– | 50 to 200 nM | COc1cc(-c2ccnn2C)ccc1Nc1nc(NCC2CCCC2)c2c(C#N)c[nH]c2n1 [Example 8, 4-((cyclopentylmethyl)amino)-2-((2-methoxy-4-(1-methyl-1H-pyrazol-5-yl)phenyl)amino)-7H-pyrrolo[2,3-d] pyrimidine-5-carbonitrile]
> 1000 nM | – | COc1cc(-c2ccnn2C)ccc1Nc1nc(NC2CCCCC2)c2c(Cl)c[nH]c2n1 [Example 5, 5-chloro-N^4-cyclohexyl-N^2-(2-methoxy-4-(1-methyl-1H-pyrazol-5-yl)phenyl)-7H-pyrrolo[2,3-d] pyrimidine-2,4-diamine]
